The source of these data is ChEMBL document CHEMBL1201862, “PubChem BioAssay data set” (2004).

The nature of test [1]: microbe, parasite or virus in culture. In kind it is functional. The following applies: Mycobacterium tuberculosis.
A short description of test [2]: growth suppression of PTEN-null colon cells, dose response, cell-based, HCT116 PTEN knockout (AID 1047).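 Note: HCT116 colon tumor cells with PTEN knocked out; cells exposed to compound for 60 hours before readout; potency for loss of cell viability measured by luminescence.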 In kind it is functional.
A further test deals with Vero. The test is described as follows: cells. In kind it is functional. The following applies: Chlorocebus sabaeus.
The nature of test [3]: growth suppression of beta-catenin-knockout colon cells, dose response, cell-based, HCT116, human colon tumor (AID 1045).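 Note: HCT116 colon tumor cells with beta catenin knocked out; cells exposed to compound for 60 hours.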 In kind it is functional.
In test [4] the target is Glucose-6-phosphate 1-dehydrogenase (Homo sapiens, UniProt P11413). The experiment in a line: human G6PD enzyme inhibitors, dose response, selectivity assay for P. falciparum G6PD inhibitor project, biochemical, fluorescence (AID 504792). In kind it is functional.
Test [5] is described as follows: HEp-2 cell cytotoxicity, dose response, cytotoxicity control for RSV inhibitor project, HTS (AID 2410). The following applies: human respiratory syncytial virus. In kind it is functional.
For the next test, the target named is Cytochrome P450 3A4 (Homo sapiens, UniProt P08684). The settings on record: Potency.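 Note: confirmatory qHTS run detecting inhibitors and substrates of CYP3A4.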
Test [6] addresses T1, Rac GTPase-activating protein 1 (Homo sapiens, UniProt Q9H0H5).
T1 sequence (Q9H0H5 whole entry): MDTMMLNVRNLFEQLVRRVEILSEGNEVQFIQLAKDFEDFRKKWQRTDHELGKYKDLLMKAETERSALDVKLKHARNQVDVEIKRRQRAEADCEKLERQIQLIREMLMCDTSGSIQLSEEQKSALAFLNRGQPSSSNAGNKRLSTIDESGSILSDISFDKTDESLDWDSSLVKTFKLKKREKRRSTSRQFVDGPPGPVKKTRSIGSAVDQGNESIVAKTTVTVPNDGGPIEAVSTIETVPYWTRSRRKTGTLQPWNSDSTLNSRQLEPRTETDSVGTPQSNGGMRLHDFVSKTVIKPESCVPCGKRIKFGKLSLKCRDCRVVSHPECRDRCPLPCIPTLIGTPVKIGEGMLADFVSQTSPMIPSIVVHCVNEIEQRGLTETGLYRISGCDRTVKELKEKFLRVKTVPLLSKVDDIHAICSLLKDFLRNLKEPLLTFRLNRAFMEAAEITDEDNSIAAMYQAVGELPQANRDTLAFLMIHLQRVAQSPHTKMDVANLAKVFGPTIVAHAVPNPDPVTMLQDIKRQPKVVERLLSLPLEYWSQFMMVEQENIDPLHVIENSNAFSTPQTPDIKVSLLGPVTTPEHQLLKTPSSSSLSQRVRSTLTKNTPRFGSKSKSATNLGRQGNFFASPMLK
The experiment in a line: MgcRacGAP GTPase-activating activity inhibitors, confirmation, biochemical, ADP Hunter fluorescence, primary and confirmatory (AID 624330). In kind it is functional.

Test [7] addresses T2, DNA repair protein RAD52 homolog (Homo sapiens, UniProt P43351).
T2 sequence (P43351 whole entry): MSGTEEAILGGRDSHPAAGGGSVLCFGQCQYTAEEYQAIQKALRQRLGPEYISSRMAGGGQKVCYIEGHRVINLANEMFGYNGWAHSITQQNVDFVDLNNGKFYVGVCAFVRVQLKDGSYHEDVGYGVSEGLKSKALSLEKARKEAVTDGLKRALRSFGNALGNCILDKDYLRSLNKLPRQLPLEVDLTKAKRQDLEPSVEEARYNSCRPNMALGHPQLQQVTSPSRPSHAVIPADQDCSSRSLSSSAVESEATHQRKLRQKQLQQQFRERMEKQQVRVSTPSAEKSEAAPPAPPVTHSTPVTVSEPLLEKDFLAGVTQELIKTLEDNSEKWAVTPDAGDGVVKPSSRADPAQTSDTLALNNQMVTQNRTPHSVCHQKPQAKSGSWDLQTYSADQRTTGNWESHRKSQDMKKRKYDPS
In kind it is functional, biochemical.

Test [8] concerns the target Eukaryotic translation initiation factor 4E (Mus musculus, UniProt P63073). The experiment in a line: eIF4E–eIF4G protein interaction inhibitors, dose response, biochemical, TR-FRET (AID 855).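 Note: potency for disrupting eIF4E binding to eIF4GI seen as loss of FRET.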 In kind it is functional.
Test [9] deals with T3, Short transient receptor potential channel 4 (Mus musculus, UniProt Q9QUQ5).
T3 sequence (Q9QUQ5 whole entry): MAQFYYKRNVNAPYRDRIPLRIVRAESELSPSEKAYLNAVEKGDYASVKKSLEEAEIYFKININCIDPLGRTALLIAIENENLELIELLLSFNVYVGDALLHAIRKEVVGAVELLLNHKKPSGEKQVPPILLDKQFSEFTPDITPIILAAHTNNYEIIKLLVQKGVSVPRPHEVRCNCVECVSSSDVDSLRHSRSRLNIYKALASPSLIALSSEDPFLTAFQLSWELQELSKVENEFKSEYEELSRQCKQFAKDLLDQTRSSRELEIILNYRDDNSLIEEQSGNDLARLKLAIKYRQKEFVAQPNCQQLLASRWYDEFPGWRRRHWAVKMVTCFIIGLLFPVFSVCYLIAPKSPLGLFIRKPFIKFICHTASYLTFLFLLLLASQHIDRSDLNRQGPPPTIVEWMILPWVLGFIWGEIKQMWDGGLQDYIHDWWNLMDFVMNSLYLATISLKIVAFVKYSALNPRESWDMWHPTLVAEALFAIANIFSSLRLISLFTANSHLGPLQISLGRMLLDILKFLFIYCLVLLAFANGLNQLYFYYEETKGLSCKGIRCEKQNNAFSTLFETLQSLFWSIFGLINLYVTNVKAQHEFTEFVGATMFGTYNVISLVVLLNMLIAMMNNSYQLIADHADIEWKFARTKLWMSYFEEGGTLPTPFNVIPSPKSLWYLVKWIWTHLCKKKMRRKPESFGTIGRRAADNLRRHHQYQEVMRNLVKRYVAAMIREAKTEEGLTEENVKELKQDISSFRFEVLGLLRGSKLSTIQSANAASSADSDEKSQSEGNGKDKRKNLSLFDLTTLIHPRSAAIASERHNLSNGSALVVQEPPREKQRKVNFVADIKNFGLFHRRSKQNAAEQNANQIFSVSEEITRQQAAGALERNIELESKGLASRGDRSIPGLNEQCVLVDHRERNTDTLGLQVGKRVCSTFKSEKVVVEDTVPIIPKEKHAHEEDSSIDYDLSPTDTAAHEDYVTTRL
The experiment in a line: mouse TRPC4 channel inhibitors, dose response, cell-based, HEK293 TRPC4/mu-opioid, Fluo-4 calcium (AID 434942).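 Note: potency of inhibitors blocking the TRPC4 calcium response.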 In kind it is functional.

Test [10] in a line: cytotoxicity toward NIH3T3 fibroblasts, dose response, counter-screen, cell-based, ATP luminescence, mouse fibroblasts (AID 2010).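 Note: cells exposed to compound for about 90 hours before reading.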 In kind it is functional. On the technique in general: A counterscreen serves to expose hits that act by an unwanted route or on another target.
Test [11] can be described thus: inhibitors of intracellular T. cruzi replication, confirmation, NIH3T3 host cells, beta-gal luminescence (AID 2044).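 Note: intracellular parasites grown in NIH/3T3 mouse fibroblasts as host cells; luminescent beta-galactosidase reporter signal from transgenic T. cruzi replicating inside host cells; inhibitors lower the luminescence signal.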 In kind it is functional, cell-based.
The nature of a further test: cells. In kind it is functional.
Test [12] has as its target T4, Ubiquitin-conjugating enzyme E2 N (Homo sapiens, UniProt P61088).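 Note: Dose-response confirmation in a TR-FRET assay detecting UBC13-driven polyubiquitin chain formation, inhibition measured.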
T4 sequence (P61088 whole entry): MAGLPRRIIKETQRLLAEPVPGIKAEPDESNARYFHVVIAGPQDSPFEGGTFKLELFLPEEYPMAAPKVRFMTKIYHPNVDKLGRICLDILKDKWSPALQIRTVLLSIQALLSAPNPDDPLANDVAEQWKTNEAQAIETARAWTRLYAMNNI
In kind it is functional.

Test [13] is described as follows: Luminescence Cell-Based Dose Retest to Confirm Inhibitors of Cancer Stem Cells. [Related pubchem assays (depositor defined):AID2717, AID2721]. In kind it is functional. The settings on record: Homo sapiens.

Activity calls are given as the source filed them.

Chain of Cytochrome P450 3A4 (P08684 whole entry): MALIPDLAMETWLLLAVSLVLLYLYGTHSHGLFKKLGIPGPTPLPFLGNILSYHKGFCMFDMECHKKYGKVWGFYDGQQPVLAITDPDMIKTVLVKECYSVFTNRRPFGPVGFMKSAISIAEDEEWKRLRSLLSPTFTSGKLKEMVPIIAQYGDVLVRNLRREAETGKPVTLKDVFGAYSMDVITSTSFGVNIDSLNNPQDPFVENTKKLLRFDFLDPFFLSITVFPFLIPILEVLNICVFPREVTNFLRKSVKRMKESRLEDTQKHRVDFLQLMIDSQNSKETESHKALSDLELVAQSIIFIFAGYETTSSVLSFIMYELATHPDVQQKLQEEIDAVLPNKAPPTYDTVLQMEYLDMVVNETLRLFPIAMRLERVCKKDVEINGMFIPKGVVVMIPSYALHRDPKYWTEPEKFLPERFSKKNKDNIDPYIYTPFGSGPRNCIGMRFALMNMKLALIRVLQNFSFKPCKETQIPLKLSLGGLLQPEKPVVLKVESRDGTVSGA
Chain of Eukaryotic translation initiation factor 4E (P63073 whole entry): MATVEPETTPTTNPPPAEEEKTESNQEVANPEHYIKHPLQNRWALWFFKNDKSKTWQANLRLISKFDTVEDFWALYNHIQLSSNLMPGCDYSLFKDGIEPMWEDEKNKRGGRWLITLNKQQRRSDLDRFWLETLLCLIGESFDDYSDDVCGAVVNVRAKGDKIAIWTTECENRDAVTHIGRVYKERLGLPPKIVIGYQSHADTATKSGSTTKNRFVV
Chain of Glucose-6-phosphate 1-dehydrogenase (P11413 whole entry): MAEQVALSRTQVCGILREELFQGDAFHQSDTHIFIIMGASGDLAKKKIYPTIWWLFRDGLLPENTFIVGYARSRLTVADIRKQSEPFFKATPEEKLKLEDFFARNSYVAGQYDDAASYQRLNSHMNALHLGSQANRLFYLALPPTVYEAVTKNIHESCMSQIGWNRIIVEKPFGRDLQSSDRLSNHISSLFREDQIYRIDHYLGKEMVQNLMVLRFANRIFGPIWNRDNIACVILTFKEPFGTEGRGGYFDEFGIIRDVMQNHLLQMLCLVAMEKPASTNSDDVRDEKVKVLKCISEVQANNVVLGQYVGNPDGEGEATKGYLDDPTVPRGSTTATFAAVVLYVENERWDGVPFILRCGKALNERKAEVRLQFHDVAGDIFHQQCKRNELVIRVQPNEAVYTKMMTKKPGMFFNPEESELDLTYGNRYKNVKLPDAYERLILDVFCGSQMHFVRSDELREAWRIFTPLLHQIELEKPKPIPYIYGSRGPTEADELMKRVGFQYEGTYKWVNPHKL

On to `CC(C)(C)NC(=O)[C@@H]1C[C@@H]2CCCC[C@@H]2CN1C[C@@H](O)[C@H](Cc1ccccc1)NC(=O)[C@H](CC(N)=O)NC(=O)c1ccc2ccccc2n1`, for which the CC50 in [1] is > 40 µM (active).

One may read the EC50 as the concentration giving half of the maximal effect. On to `C=CCn1c(SCC(=O)c2[nH]c(C)c(C(=O)OCC)c2C)nc2scc(-c3ccc(OC)cc3)c2c1=O`, for which the EC50 in [2] was 1.49 µM (active); in test [3] it was 1.41 µM (active). The CC50 with Vero is 6.78 µM (active).

On to `CN(CCNC(=O)c1cc2c(=O)n(C)c3ccccc3c2n1C)Cc1ccccc1`, for which the EC50 in test [2] is 31.5 µM (active); in [3], 23 µM (active).

Usually IC50 stands for the concentration that inhibits the measured activity by half. In the case of `O=C(Cc1ccccc1)NCC(=O)OCC(=O)c1ccc([N+](=O)[O-])cc1`, the IC50 in [4] was > 80 µM (inactive).

On to `COc1ccc(OC)c(Nc2nc(-c3sc(C)nc3C)cs2)c1`, for which the CC50 in test [1] was > 40 µM (active); in [5], 20.4 µM (active).

One may read the AC50 as the concentration giving half of the maximal activity seen. Turning to `CNC(=O)C1(C)C=CC2(CCCCC2)N1C(=O)OC` (stereo not given), the AC50 on Cytochrome P450 3A4 was 25.1 µM (inconclusive).

As for `CC1CCCCN1CC(=O)Nc1ccc(N2CCCCCC2)cc1` (stereo not given), the concentration for half-maximal inhibition (IC50) in test [6] is 101 µM (active). For the same compound, the AC50 in test [7] was 17.4 µM (active).

As to `CCOC(=O)c1c(NC(=S)NC(=O)/C=C/c2cccs2)sc(C)c1C`, the EC50 was 21.2 µM (active) in [2] and 21.4 µM (active) in [3].

`CC1=CC(=O)NP(=O)(Oc2ccc3ccccc3c2)N1` (stereo not given): the IC50 in [6] is 80.7 µM (active); in test [8], 31.2 µM (active).

In the case of `CCC1=C2CC[C@H]3C(=O)NC(=O)[C@H]3[C@H]2[C@@]2(C)C(=O)N(CC3CC3)C(=O)N2C1=O`, the AC50 at Cytochrome P450 3A4 is 31.6 µM (inconclusive).

`CCCCCCc1ccc(N2C[C@H](C)[C@@H](CC(=O)NCc3ccccc3)C2=O)cc1`: the CC50 in test [1] is > 40 µM (active).

With `CC(C)(C)NCc1ccccc1OCc1cccs1`, in [9], the EC50 was 3.76 µM (active).

Turning to `CCN(CC)c1cccc(O)c1`, the AC50 at Cytochrome P450 3A4 was 31.6 µM (inconclusive).

With `COc1cccc(-c2cnc(NCc3cc(Cl)ccc3O)n2C)c1`, in test [1], the CC50 was > 40 µM (active).

In the case of `Cc1nc2ccc(NC(=O)c3ccc([N+](=O)[O-])cc3[N+](=O)[O-])cc2s1`, the EC50 in [10] is > 60 µM (not active); in test [11] it was 0.654 µM (active). In addition, the IC50 in the test “cells” was 1.85 µM (active).

For `CCN(CC)CCN(C(=O)c1ccc(C(=O)c2ccccc2)cc1)c1nc2c(OC)cccc2s1`, the AC50 in test [7] was 17.2 µM (active).

In the case of `CCc1ccccc1N=C(S)N(CCCN(C)C)Cc1cc2cc3c(cc2nc1O)OCO3`, the EC50 in [9] is 1.06 µM (active).

Consider `COc1cc2c(cc1OC)C(c1ccccc1N)=NCC2`, for which the AC50 in test [7] was 18.6 µM (active).

`COC(=O)CNC(=O)C1(CC(C)C)C=CCN1C(C)=O` (stereo not given): the AC50 at Cytochrome P450 3A4 is 25.1 µM (inconclusive).

Regarding `CCOc1ccc(OC(=O)c2ccc3c(=O)n4c(nc3c2)CCC4)cc1`, the IC50 in “cells” is 0.12 µM (active).

On to `CC1(C)OC2CC3C4CC(F)C5=CC(=O)C=C[C@@]5(C)[C@@]4(F)C(O)C[C@@]3(C)[C@]2(C(=O)CO)O1` (stereo not given in full), for which, on Cytochrome P450 3A4, the AC50 is 39.8 µM (inconclusive).

Take `Cc1ccc(S(=O)(=O)Oc2ccc(/N=N/c3ccc(-c4ccc(/N=N/c5c(O)ccc6cc(S(=O)(=O)O)cc(S(=O)(=O)O)c56)c(C)c4)cc3C)cc2)cc1`: at Cytochrome P450 3A4, the AC50 is 25.1 µM (inconclusive).

Consider `CCOC(=O)N1CCN(C(=O)C(=O)Nc2sc3c(c2C(N)=O)CC(C)(C)OC3)CC1`, for which the IC50 in test [12] is > 20 µM (inactive).

Turning to `CCOC(=O)CSc1nc2ccccc2c(=O)n1CC1CCCC1`, in test [9], the EC50 was 6.68 µM (active).

Take `Cc1ccn2cc(CCNC(=O)c3ccc(Br)o3)nc2c1`: in test [9], the EC50 was 7.5 µM (active).

With `COc1ccc2[nH]c(SCc3nc(N)nc(Nc4ccccc4)n3)nc2c1`, in test [12], the IC50 is > 20 µM (inactive).

Take `CC(=O)O[C@H]1[C@@H](O)[C@H](O)[C@H](Oc2c(O)c(C)c3c4c2[C@@H](C)CC[C@@H]4[C@@H](C)C[C@H]3C=C(C)C)O[C@H]1C`: the AC50 in test [13] was 3.19 µM (active). In addition, in [12], the IC50 was > 20 µM (inactive).

Take `CNC(C)C(=O)NC(C(=O)N1CCCC1C(=O)Nc1ccc2[nH]ccc2c1)C(C)C` (stereo not given): in test [7], the AC50 is 7.54 µM (active).

With `COc1ccccc1/C=C/C(=O)c1cccs1`, the AC50 at Cytochrome P450 3A4 was 25.1 µM (inconclusive).

`COc1ccc(/N=c2\cc(-c3ccc(O)cc3)oc3ccccc23)cc1`: in [1], the CC50 is 32.9 µM (active).
